In patent US20230398130A1, “METHODS AND COMPOSITIONS FOR DIFFERENTIATING STEM CELLS” (Massachusetts Institute of Technology, priority 2020, published 2023):

Legend:
ISC-enriched organoids [1] = experiment: Primary screen, 384-well 2.5-D organoid differentiation (ENR+CD, 6 days): basal lysozyme secretion (LYZ.NS); assay type: cell-based, murine; conditions: for Z.LYZ.NS (standard z score) / Dose.FC.LYZ.NS (log 2 fold change) / Dose.FC.LYZ.NS / Z.LYZ.NS: primary screen; for Dose.FC.LYZ.NS (log 2 fold change): vs plate median; for Dose.FC.LYZ.NS: ENR+CD 6 days, FC vs plate median; for Z.LYZ.NS: standard z score of FC
Text: (§1) High-throughput screening.

ISC-enriched organoids [2] = experiment: Primary screen, 384-well 2.5-D organoid differentiation (ENR+CD, 6 days): carbachol-induced lysozyme secretion (LYZ.S); assay type: cell-based, murine; conditions: for Dose.FC.LYZ.S (log 2 fold change) / Dose.FC.LYZ.S: primary screen; for Dose.FC.LYZ.S (log 2 fold change): vs plate median; for Dose.FC.LYZ.S: ENR+CD 6 days, FC vs plate median
Text: as §1

ISC-enriched organoids [3] = experiment: Primary screen, 384-well 2.5-D organoid differentiation (ENR+CD, 6 days, Target Selective Inhibitor Library, vs whole-plate median): ATP (CellTiter-Glo 3D, CTG); conditions: for Z.CTG (standard z score) / Dose.FC.CTG (log 2 fold change) / Dose.FC.CTG / Z.CTG: primary screen; for Dose.FC.CTG (log 2 fold change): vs plate median; for Dose.FC.CTG: ENR+CD 6 days, FC vs plate median; for Z.CTG: standard z score of FC
[4] = dose 0.08 uM (1st of 4 lines per treatment; dose not printed in this part)
[5] = dose 0.40 uM (2nd of 4 lines per treatment; dose not printed in this part)
[6] = dose 2.00 uM (3rd of 4 lines per treatment; dose not printed in this part)
[7] = dose 10.00 uM (4th of 4 lines per treatment; dose not printed in this part)

Q: Cl.NC(=O)c1cnc(N[C@@H]2CCCC[C@@H]2N)nc1Nc1cccc(-n2nccn2)c1 [PRT062607 (P505-15, BIIB057) HCl] was tested. Which “Z.LYZ.NS (standard z score)” value (ISC-enriched organoids [1]; Dose 0.08 uM) did it give?
A: Its value is 0.037.

Q: And the “Dose.FC.LYZ.NS (log 2 fold change)” value (ISC-enriched organoids [1]; Dose 0.08 uM)?
A: The value was 0.004.

Q: And the “Z.LYZ.NS (standard z score)” value (ISC-enriched organoids [1]; Dose 0.40 uM)?
A: Its value is 0.194.

Q: And the “Dose.FC.LYZ.NS (log 2 fold change)” value (ISC-enriched organoids [1]; Dose 0.40 uM)?
A: Its value is 0.022.

Q: And the “Z.LYZ.NS (standard z score)” value (ISC-enriched organoids [1]; Dose 2.00 uM)?
A: Its value is −0.280.

Q: And the “Dose.FC.LYZ.NS (log 2 fold change)” value (ISC-enriched organoids [1]; Dose 2.00 uM)?
A: The value was −0.032.

Q: And the “Z.LYZ.NS (standard z score)” value (ISC-enriched organoids [1]; Dose 10.00 uM)?
A: The value was −1.837.

Q: What about the “Dose.FC.LYZ.NS (log 2 fold change)” value (ISC-enriched organoids [1]; Dose 10.00 uM) of the same compound?
A: Its value is −0.211.

Q: What about the “Dose.FC.LYZ.S (log 2 fold change)” value (ISC-enriched organoids [2]; Dose 0.08 uM) of the same compound?
A: The value was −0.033.

Q: What about the “Dose.FC.LYZ.S (log 2 fold change)” value (ISC-enriched organoids [2]; Dose 0.40 uM) of the same compound?
A: The value was 0.122.

Q: And the “Dose.FC.LYZ.S (log 2 fold change)” value (ISC-enriched organoids [2]; Dose 2.00 uM)?
A: Its value is −0.123.

Q: And the “Dose.FC.LYZ.S (log 2 fold change)” value (ISC-enriched organoids [2]; Dose 10.00 uM)?
A: Its value is −0.298.

Q: What about the “Z.CTG (standard z score)” value (ISC-enriched organoids [3]; Dose 0.08 uM) of the same compound?
A: Its value is −0.219.

Q: And the “Dose.FC.CTG (log 2 fold change)” value (ISC-enriched organoids [3]; Dose 0.08 uM)?
A: Its value is −0.092.

Q: And the “Z.CTG (standard z score)” value (ISC-enriched organoids [3]; Dose 0.40 uM)?
A: The value was 0.191.

Q: And the “Dose.FC.CTG (log 2 fold change)” value (ISC-enriched organoids [3]; Dose 0.40 uM)?
A: Its value is 0.080.

Q: And the “Z.CTG (standard z score)” value (ISC-enriched organoids [3]; Dose 2.00 uM)?
A: Its value is −0.179.

Q: And the “Dose.FC.CTG (log 2 fold change)” value (ISC-enriched organoids [3]; Dose 2.00 uM)?
A: Its value is −0.075.

Q: What about the “Z.CTG (standard z score)” value (ISC-enriched organoids [3]; Dose 10.00 uM) of the same compound?
A: Its value is −0.788.

Q: And the “Dose.FC.CTG (log 2 fold change)” value (ISC-enriched organoids [3]; Dose 10.00 uM)?
A: The value was −0.330.

Q: Which results are given for Cc1nn(-c2ccccc2)c(C)c1/C=N/N1CCN(Cc2ccccc2)CC1 [SANT-1]?
A: Z.LYZ.NS (standard z score) (ISC-enriched organoids [1]; Dose 0.08 uM): 0.485; Dose.FC.LYZ.NS (log 2 fold change) (ISC-enriched organoids [1]; Dose 0.08 uM): 0.056; Z.LYZ.NS (standard z score) (ISC-enriched organoids [1]; Dose 0.40 uM): 0.002; Dose.FC.LYZ.NS (log 2 fold change) (ISC-enriched organoids [1]; Dose 0.40 uM): 0.000; Z.LYZ.NS (standard z score) (ISC-enriched organoids [1]; Dose 2.00 uM): 1.528; Dose.FC.LYZ.NS (log 2 fold change) (ISC-enriched organoids [1]; Dose 2.00 uM): 0.175; Z.LYZ.NS (standard z score) (ISC-enriched organoids [1]; Dose 10.00 uM): −0.430; Dose.FC.LYZ.NS (log 2 fold change) (ISC-enriched organoids [1]; Dose 10.00 uM): −0.049; Dose.FC.LYZ.S (log 2 fold change) (ISC-enriched organoids [2]; Dose 0.08 uM): 0.112; Dose.FC.LYZ.S (log 2 fold change) (ISC-enriched organoids [2]; Dose 0.40 uM): 0.024; Dose.FC.LYZ.S (log 2 fold change) (ISC-enriched organoids [2]; Dose 2.00 uM): 0.101; Dose.FC.LYZ.S (log 2 fold change) (ISC-enriched organoids [2]; Dose 10.00 uM): −0.120; Z.CTG (standard z score) (ISC-enriched organoids [3]; Dose 0.08 uM): 0.736; Dose.FC.CTG (log 2 fold change) (ISC-enriched organoids [3]; Dose 0.08 uM): 0.308; Z.CTG (standard z score) (ISC-enriched organoids [3]; Dose 0.40 uM): 0.186; Dose.FC.CTG (log 2 fold change) (ISC-enriched organoids [3]; Dose 0.40 uM): 0.078; Z.CTG (standard z score) (ISC-enriched organoids [3]; Dose 2.00 uM): 0.327; Dose.FC.CTG (log 2 fold change) (ISC-enriched organoids [3]; Dose 2.00 uM): 0.137; Z.CTG (standard z score) (ISC-enriched organoids [3]; Dose 10.00 uM): −0.100; Dose.FC.CTG (log 2 fold change) (ISC-enriched organoids [3]; Dose 10.00 uM): −0.042

Q: With N#Cc1c(O)c2c(-c3ccc(-c4ccccc4O)cc3)csc2[nH]c1=O [A-769662] as the compound, how does the “SSMD.LYZ.NS_Rep (strictly standardized mean difference)” value (ISC-enriched organoids [1]; [4]) read?
A: Its value is 0.286.

Q: What about the “SSMD.LYZ.NS_Rep (strictly standardized mean difference)” value (ISC-enriched organoids [1]; [5]) of the same compound?
A: Its value is 0.498.

Q: And the “SSMD.LYZ.NS_Rep (strictly standardized mean difference)” value (ISC-enriched organoids [1]; [6])?
A: Its value is 0.554.

Q: What about the “SSMD.LYZ.NS_Rep (strictly standardized mean difference)” value (ISC-enriched organoids [1]; [7]) of the same compound?
A: Its value is 0.068.

Q: And the Dose.FC.LYZ.NS (ISC-enriched organoids [1]; dose 0.08 uM)?
A: The Dose.FC.LYZ.NS was 0.045 log 2 fold change.

Q: And the Z.LYZ.NS (ISC-enriched organoids [1]; dose 0.08 uM)?
A: Its Z.LYZ.NS is 0.394.

Q: And the Dose.FC.LYZ.NS (ISC-enriched organoids [1]; dose 0.40 uM)?
A: Its Dose.FC.LYZ.NS is 0.069 log 2 fold change.

Q: And the Z.LYZ.NS (ISC-enriched organoids [1]; dose 0.40 uM)?
A: Its Z.LYZ.NS is 0.599.

Q: And the Dose.FC.LYZ.NS (ISC-enriched organoids [1]; dose 2.00 uM)?
A: The Dose.FC.LYZ.NS was 0.054 log 2 fold change.

Q: And the Z.LYZ.NS (ISC-enriched organoids [1]; dose 2.00 uM)?
A: The Z.LYZ.NS was 0.473.

Q: What about the Dose.FC.LYZ.NS (ISC-enriched organoids [1]; dose 10.00 uM) of the same compound?
A: The Dose.FC.LYZ.NS was 0.009 log 2 fold change.

Q: What about the Z.LYZ.NS (ISC-enriched organoids [1]; dose 10.00 uM) of the same compound?
A: Its Z.LYZ.NS is 0.075.

Q: And the “SSMD.LYZ.S_Rep (strictly standardized mean difference)” value (ISC-enriched organoids [2]; [4])?
A: The value was 0.365.

Q: And the “Z.LYZ.S (standard z score)” value (ISC-enriched organoids [2]; [4])?
A: The value was 0.426.

Q: What about the “SSMD.LYZ.S_Rep (strictly standardized mean difference)” value (ISC-enriched organoids [2]; [5]) of the same compound?
A: The value was 0.472.

Q: What about the “Z.LYZ.S (standard z score)” value (ISC-enriched organoids [2]; [5]) of the same compound?
A: The value was 0.460.

Q: What about the “SSMD.LYZ.S_Rep (strictly standardized mean difference)” value (ISC-enriched organoids [2]; [6]) of the same compound?
A: The value was 0.488.

Q: What about the “Z.LYZ.S (standard z score)” value (ISC-enriched organoids [2]; [6]) of the same compound?
A: The value was 1.191.

Q: What about the “SSMD.LYZ.S_Rep (strictly standardized mean difference)” value (ISC-enriched organoids [2]; [7]) of the same compound?
A: The value was 0.119.

Q: And the “Z.LYZ.S (standard z score)” value (ISC-enriched organoids [2]; [7])?
A: The value was 0.121.

Q: What about the Dose.FC.LYZ.S (ISC-enriched organoids [2]; dose 0.08 uM) of the same compound?
A: The Dose.FC.LYZ.S was 0.066 log 2 fold change.

Q: And the Dose.FC.LYZ.S (ISC-enriched organoids [2]; dose 0.40 uM)?
A: The Dose.FC.LYZ.S was 0.071 log 2 fold change.

Q: And the Dose.FC.LYZ.S (ISC-enriched organoids [2]; dose 2.00 uM)?
A: Its Dose.FC.LYZ.S is 0.184 log 2 fold change.

Q: And the Dose.FC.LYZ.S (ISC-enriched organoids [2]; dose 10.00 uM)?
A: Its Dose.FC.LYZ.S is 0.019 log 2 fold change.

Q: And the “SSMD.CTG_Rep (strictly standardized mean difference)” value (ISC-enriched organoids [3]; [4])?
A: Its value is −0.255.

Q: And the “SSMD.CTG_Rep (strictly standardized mean difference)” value (ISC-enriched organoids [3]; [5])?
A: Its value is 0.019.

Q: And the “SSMD.CTG_Rep (strictly standardized mean difference)” value (ISC-enriched organoids [3]; [6])?
A: The value was −0.312.

Q: And the “SSMD.CTG_Rep (strictly standardized mean difference)” value (ISC-enriched organoids [3]; [7])?
A: The value was −0.056.

Q: And the Dose.FC.CTG (ISC-enriched organoids [3]; dose 0.08 uM)?
A: Its Dose.FC.CTG is −0.074 log 2 fold change.

Q: And the Z.CTG (ISC-enriched organoids [3]; dose 0.08 uM)?
A: Its Z.CTG is −0.177.

Q: And the Dose.FC.CTG (ISC-enriched organoids [3]; dose 0.40 uM)?
A: Its Dose.FC.CTG is 0.007 log 2 fold change.

Q: And the Z.CTG (ISC-enriched organoids [3]; dose 0.40 uM)?
A: The Z.CTG was 0.016.

Q: And the Dose.FC.CTG (ISC-enriched organoids [3]; dose 2.00 uM)?
A: The Dose.FC.CTG was −0.127 log 2 fold change.

Q: What about the Z.CTG (ISC-enriched organoids [3]; dose 2.00 uM) of the same compound?
A: The Z.CTG was −0.304.

Q: And the Dose.FC.CTG (ISC-enriched organoids [3]; dose 10.00 uM)?
A: The Dose.FC.CTG was −0.015 log 2 fold change.

Q: And the Z.CTG (ISC-enriched organoids [3]; dose 10.00 uM)?
A: The Z.CTG was −0.036.
